In one assay the target is T1, human LXR alpha (Homo sapiens, UniProt Q13133).
T1 construct: human LXR alpha (aa 164 to 447); made in house; host or cells: E. coli BL21(pLysS)
T1 sequence (Q13133 164-447): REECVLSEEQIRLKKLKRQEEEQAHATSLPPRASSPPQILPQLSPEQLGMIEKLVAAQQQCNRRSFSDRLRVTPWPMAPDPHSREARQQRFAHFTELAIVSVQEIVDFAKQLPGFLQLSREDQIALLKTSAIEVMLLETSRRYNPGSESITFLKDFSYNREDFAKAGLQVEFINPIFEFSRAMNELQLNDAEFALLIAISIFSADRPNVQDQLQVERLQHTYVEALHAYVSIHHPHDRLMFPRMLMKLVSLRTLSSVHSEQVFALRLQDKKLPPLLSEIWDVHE
In words: Radioligand binding assay (scintillation proximity), LXR alpha. Particulars: GST-LXRα-LBD on SPA beads, radioligand displacement; read-out: LXRalpha Binding IC50. The method, then:
(§1) The following tests were carried out in order to determine the activity of the compounds of the present invention. Background information on the performed assays can be found in: Nichols J S et al. “Development of a scintillation proximity assay for peroxisome proliferator-activated receptor gamma ligand binding domain”, Anal Biochem. 1998, 257: 112-119.
(§2) Mammalian expression vectors were constructed to express full-length human LXR alpha and LXR beta. Bacterial expression vectors were constructed to produce glutathione-s-transferase (GST) fused to the ligand binding domains (LBD) of human LXR alpha (aa 164 to 447) and human LXR beta (aa 155 to 460). To accomplish this, the portions of the sequences encoding the LBDs were amplified from full-length clones by PCR and then subdoned into the plasmid vectors. Final clones were verified by DNA sequence analysis (Willy et al., Genes Dev. 1995, 9:1033-45; Song et al., Proc Natl Acad Sci USA.1994, 91:10809-13). […]
(§3) LXR alpha and LXR beta receptor binding were assayed in buffer consisting of 50 mM HEPES, pH 7.4, 10 mM NaCl, 5 mM MgCl2. […] All binding assays were performed in 96-well plates and the amount of bound ligand was measured on a Packard TopCount using OptiPlates (Packard). Dose response curves were measured within a range of concentration from 10^−10 M to 10^−4 M.
(In general: In a scintillation proximity assay essentially only radioactivity close to the scintillant gives light.)

The next assay concerns the target T2, human LXR beta (Homo sapiens, UniProt P55055).
T2 construct: human LXR beta (aa 155 to 460); made in house; host or cells: E. coli BL21(pLysS)
T2 sequence (P55055 155-460): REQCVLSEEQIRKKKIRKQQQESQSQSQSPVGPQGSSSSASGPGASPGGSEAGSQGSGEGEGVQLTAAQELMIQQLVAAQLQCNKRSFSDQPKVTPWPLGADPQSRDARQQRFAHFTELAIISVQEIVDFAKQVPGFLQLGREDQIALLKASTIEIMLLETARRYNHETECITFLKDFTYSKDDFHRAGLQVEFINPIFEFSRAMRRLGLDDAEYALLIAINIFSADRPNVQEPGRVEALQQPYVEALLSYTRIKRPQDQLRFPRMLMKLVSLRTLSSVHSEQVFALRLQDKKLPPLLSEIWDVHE
In words: Radioligand binding assay (scintillation proximity), LXR beta. Particulars: GST-LXR beta-LBD on SPA beads, radioligand displacement; read-out: LXRbeta Binding IC50. The method, then:
as §1, §2, §3

On to `CC1Cc2cc(C(O)(C(F)(F)F)C(F)(F)F)ccc2N1Cc1cccc(CO)c1` (stereo not shown) [Example 50, 1,1,1,3,3,3-hexafluoro-2-[1-(3-hydroxymethyl-benzyl)-2-methyl-2,3-dihydro-1H-indol-5-yl]-propan-2-ol], for which the values for the IC50 on human LXR alpha and on human LXR beta were 0.02 µM and 0.006 µM, respectively.
The like results for `Cc1cc2cc(C(O)(C(F)(F)F)C(F)(F)F)ccc2n1Cc1ccccc1` [Example 80, 2-(1-benzyl-2-methyl-1H-indol-5-yl)-1,1,1,3,3,3-hexafluoro-propan-2-ol] were, in that order, 0.03 µM and 0.05 µM.

The IC50 is the concentration at which inhibition is half-maximal.

Source of the values: US7485652B2, “Indolyl derivatives as liver-X-receptor (LXR) modulators” (Hoffmann-La Roche Inc., priority 2004, dated 2009).
